This passage reports melting point results from US7109225B2, “Substituted oxazole derivatives” (Hofmann-la Roche Inc., priority 2002, dated 2006).

As for `COC(Cc1cc(C)c(OCCc2nc(C(C)(C)C)oc2C)c(C)c1)C(=O)O` (stereo not drawn) [Example 15, 3-{4-[2-(2-tert-Butyl-5-methyl-oxazol-4-yl)-ethoxy]-3,5-dimethyl-phenyl}-2-methoxy-propionic acid], the melting point lay in the range of 78 to 80 °C.
For the molecule `CCCOC(Cc1ccc(OCc2nc(C(C)(C)C)oc2C)c2ccccc12)C(=O)O` (stereo not drawn) [Example 24, 3-[4-(2-tert-Butyl-5-methyl-oxazol-4-ylmethoxy)-naphthalen-1-yl]-2-propoxy-propionic acid], the melting point lay in the range of 169 to 170 °C.
In the case of `CCOC(Cc1cc(C)c(OCCc2nc(C(C)(C)C)oc2C)c(C)c1)C(=O)O` (stereo not drawn) [Example 16, 3-{4-[2-(2-tert-Butyl-5-methyl-oxazol-4-yl)-ethoxy]-3,5-dimethyl-phenyl}-2-ethoxy-propionic acid] it was 104 to 106 °C; in that of `CCOC(Cc1ccc(OCCc2nc(C(CC)CC)oc2C)c2ccsc12)C(=O)O` (racemic) [Example 68, [rac]-2-Ethoxy-3-(4-{2-[2-(1-ethyl-propyl)-5-methyl-oxazol-4-yl]-ethoxy}-benzo[b]thiophen-7-yl)-propionic acid], 120 to 121 °C; in that of `CCOC(Cc1ccc(OCCc2nc(CC)oc2C)c2ccsc12)C(=O)O` (racemic) [Example 66, [rac]-2-Ethoxy-3-{4-[2-(2-ethyl-5-methyl-oxazol-4-yl)-ethoxy]-benzo[b]thiophen-7-yl}-propionic acid], 84 to 85 °C.
Next, `Cc1oc(C(C)(C)C)nc1COc1ccc(CC(OC(C)C)C(=O)O)c2sccc12` (stereo not drawn) [Example 23, 3-[4-(2-tert-Butyl-5-methyl-oxazol-4-ylmethoxy)-benzo[b]thiophen-7-yl]-2-isopropoxy-propionic acid]: 166 to 167 °C; `CCOC(Cc1ccc(OCc2nc(C(C)(C)C)oc2C)c(C)c1)C(=O)O` (stereo not drawn) [Example 21, 3-[4-(2-tert-Butyl-5-methyl-oxazol-4-ylmethoxy)-3-methyl-phenyl]-2-ethoxy-propionic acid]: 95 to 97 °C.
In the case of `COC(Cc1ccc(OCCc2nc(C(C)(C)C)oc2C)c2ccsc12)C(=O)O` (stereo not drawn) [Example 10, 3-{4-[2-(2-tert-Butyl-5-methyl-oxazol-4-yl)-ethoxy]-benzo[b]thiophen-7-yl}-2-methoxy-propionic acid] it was 163 to 165 °C.
As to `COC(Cc1ccc(OCCCc2nc(C(C)(C)C)oc2C)c2ccsc12)C(=O)O` (racemic) [Example 58, [rac]-3-{4-[3-(2-tert-Butyl-5-methyl-oxazol-4-yl)-propoxy]-benzo[b]thiophen-7-yl}-2-methoxy-propionic acid], the melting point is 110 to 113 °C.
In turn, `Cc1oc(C(C)(C)C)nc1CCCOc1ccc(CC(OC(C)C)C(=O)O)c2ccccc12` (racemic) [Example 55, [rac]-3-{4-[3-(2-tert-Butyl-5-methyl-oxazol-4-yl)-propoxy]-naphthalen-1-yl}-2-isopropoxy-propionic acid] came in with a melting point of 118 to 119 °C.
Next, `C=CCCO[C@@H](Cc1ccc(OCCc2nc(C(C)(C)C)oc2C)c2ccsc12)C(=O)O` [Example 7, (S)-2-But-3-enyloxy-3-{4-[2-(2-tert-butyl-5-methyl-oxazol-4-yl)-ethoxy]-benzo[b]thiophen-7-yl}-propionic acid]: 70 to 71 °C.
Next, `CCO[C@@H](Cc1ccc(OCCc2nc(C(C)(C)C)oc2C)c2ccsc12)C(=O)O` [Example 6, (S)-3-{4-[2-(2-tert-Butyl-5-methyl-oxazol-4-yl)-ethoxy]-benzo[b]thiophen-7-yl}-2-ethoxy-propionic acid]: 155 to 156 °C; `Cc1oc(C2CC2)nc1COc1ccc(CC(OC(C)C)C(=O)O)c2sccc12` (stereo not drawn) [Example 42, 3-[4-(2-Cyclopropyl-5-methyl-oxazol-4-ylmethoxy)-benzo[b]thiophen-7-yl]-2-isopropoxy-propionic acid]: 71 to 72 °C; `CCOC(Cc1ccc(OCCCc2nc(C(C)(C)C)oc2C)c2ccsc12)C(=O)O` (racemic) [Example 54, [rac]-3-{4-[3-(2-tert-Butyl-5-methyl-oxazol-4-yl)-propoxy]-benzo[b]thiophen-7-yl}-2-ethoxy-propionic acid]: 125 to 126 °C.
In the case of `COC(Cc1ccc(OCCc2nc(C(C)(C)C)oc2C)c2ccccc12)C(=O)O` (stereo not drawn) [Example 13, 3-{4-[2-(2-tert-Butyl-5-methyl-oxazol-4-yl)-ethoxy]-naphthalen-1-yl}-2-methoxy-propionic acid] it was 141 to 143 °C; in that of `CCOC(Cc1ccc(OCCCc2nc(C(CC)CC)oc2C)c2ccsc12)C(=O)O` (racemic) [Example 67, [rac]-2-Ethoxy-3-(4-{3-[2-(1-ethyl-propyl)-5-methyl-oxazol-4-yl]-propoxy}-benzo[b]thiophen-7-yl)-propionic acid], 54 to 56 °C; in that of `CCOC(Cc1ccc(OCc2nc(C3CC3)oc2C)c2ccccc12)C(=O)O` (stereo not drawn) [Example 38, 3-[4-(2-Cyclopropyl-5-methyl-oxazol-4-ylmethoxy)-naphthalen-1-yl]-2-ethoxy-propionic acid], 166 to 168 °C.
In turn, `Cc1oc(C(C)C)nc1CCCOc1ccc(CC(OC(C)C)C(=O)O)c2sccc12` (racemic) [Example 62, [rac]-2-Isopropoxy-3-{4-[3-(2-isopropyl-5-methyl-oxazol-4-yl)-propoxy]-benzo[b]thiophen-7-yl}-propionic acid] had a melting point of 125 to 126 °C.
In turn, `CCOC(Cc1ccc(OCc2nc(C3CC3)oc2C)c2ccsc12)C(=O)O` (stereo not drawn) [Example 43, 3-[4-(2-Cyclopropyl-5-methyl-oxazol-4-ylmethoxy)-benzo[b]thiophen-7-yl]-2-ethoxy-propionic acid] came in with a melting point of 153 to 154 °C.
In the case of `CCCOC(Cc1ccc(OCCc2nc(C3CCCCC3)oc2C)c2ccccc12)C(=O)O` (stereo not drawn) [Example 28, 3-{4-[2-(2-Cyclohexyl-5-methyl-oxazol-4-yl)-ethoxy]-naphthalen-1-yl}-2-propoxy-propionic acid] it was 106 to 107 °C; in that of `CCCOC(Cc1ccc(OCCc2nc(C(C)(C)C)oc2C)c2ccccc12)C(=O)O` (stereo not drawn) [Example 14, 3-{4-[2-(2-tert-Butyl-5-methyl-oxazol-4-yl)-ethoxy]-naphthalen-1-yl}-2-propoxy-propionic acid], 135 to 137 °C; in that of `CCCOC(Cc1ccc(OCc2nc(C3CC3)oc2C)c2ccsc12)C(=O)O` (stereo not drawn) [Example 41, 3-[4-(2-Cyclopropyl-5-methyl-oxazol-4-ylmethoxy)-benzo[b]thiophen-7-yl]-2-propoxy-propionic acid], 88 to 89 °C.
Next, `CCOC(Cc1ccc(OCc2nc(C(C)(C)C)oc2C)c2ccsc12)C(=O)O` (stereo not drawn) [Example 19, 3-[4-(2-tert-Butyl-5-methyl-oxazol-4-ylmethoxy)-benzo[b]thiophen-7-yl]-2-ethoxy-propionic acid]: 179 to 180 °C.
In the case of `CCOC(Cc1ccc(OCc2nc(C(C)(C)C)oc2C)c2ccccc12)C(=O)O` (stereo not drawn) [Example 22, 3-[4-(2-tert-Butyl-5-methyl-oxazol-4-ylmethoxy)-naphthalen-1-yl]-2-ethoxy-propionic acid] it was 185 to 186 °C.
`CCOC(Cc1ccc(OCCc2nc(C(C)(C)C)oc2C)c2ccsc12)C(=O)O` (stereo not drawn) [Example 9, 3-{4-[2-(2-tert-Butyl-5-methyl-oxazol-4-yl)-ethoxy]-benzo[b]thiophen-7-yl}-2-ethoxy-propionic acid] yielded a melting point of 152 to 153 °C.
In the case of `Cc1oc(C2CC2)nc1COc1ccc(CC(OC(C)C)C(=O)O)c2ccccc12` (stereo not drawn) [Example 40, 3-[4-(2-Cyclopropyl-5-methyl-oxazol-4-ylmethoxy)-naphthalen-1-yl]-2-isopropoxy-propionic acid] it was 129 to 130 °C.
With `CCCOC(Cc1ccc(OCCCc2nc(C(C)(C)C)oc2C)c2ccccc12)C(=O)O` (racemic) [Example 57, [rac]-3-{4-[3-(2-tert-Butyl-5-methyl-oxazol-4-yl)-propoxy]-naphthalen-1-yl}-2-propoxy-propionic acid], the melting point lay in the range of 140 to 141 °C.
In the case of `CCOC(Cc1ccc(OCCCc2nc(CC)oc2C)c2ccccc12)C(=O)O` (racemic) [Example 65, [rac]-2-Ethoxy-3-{4-[3-(2-ethyl-5-methyl-oxazol-4-yl)-propoxy]-naphthalen-1-yl}-propionic acid] it was 113 to 117 °C; in that of `CCOC(Cc1ccc(OCCCc2nc(C(C)(C)C)oc2C)c2ccccc12)C(=O)O` (racemic) [Example 56, [rac]-3-{4-[3-(2-tert-Butyl-5-methyl-oxazol-4-yl)-propoxy]-naphthalen-1-yl}-2-ethoxy-propionic acid], 138 to 140 °C; in that of `CCOC(Cc1ccc(OCCCc2nc(C(C)(C)C)oc2CC)c2ccsc12)C(=O)O` (racemic) [Example 53, [rac]-3-{4-[3-(2-tert-Butyl-5-ethyl-oxazol-4-yl)-propoxy]-benzo[b]thiophen-7-yl}-2-ethoxy-propionic acid], 94 to 95 °C.
